A word on the GI50: it is the concentration that inhibits growth by half.

The text below walks through data of patent US20250144227A1, “C-16 MODIFIED TRIOXACARCINS, ANTIBODY DRUG CONJUGATES, AND USES THEREOF” (President and Fellows of Harvard College, priority 2021, published 2025).

Read-outs that look alike come from different tables or passages of the source.

One data set deals with MES-SA/Dx-5 cells. As to the kind of experiment: Cell proliferation assay (resazurin, CellTiter-Blue), MES-SA/Dx-5 cells. It is filed as cell-based. The settings on record: Homo sapiens. The procedure: (§1) Cell Culture: All cell-culture work was conducted in a class II biological safety cabinet. H460 cells (P2-P4, American Type Culture Collection) were maintained in RPMI-1640 medium supplemented with 10% fetal bovine serum (FBS). HL-60 cells (P2-P4, American Type Cuture Collection) were maintained in RPMI-1640 medium supplemented with 10% FBS. MES-SA/Dx-5 cells (P2-P4, European Collection of Authenticated Cell Cultures) were maintained in McCoy's 5A medium supplemented with 10% FBS.
(§2) Cell Proliferation Assay: H460 and MES-SA/Dx-5 cells were grown to approximately 80% confluence, and then were trpysinized, collected, and pelleted by centrifugation (10 min at 183 x g, 24° C.), and HL-60 cells were grown to confluence and directly pelleted by centrifugation (10 min at 183 × g, 24° C.). The supernatant was discarded and the cell pellet was resuspended in 10 mL of fresh medium. A sample was diluted 10-fold in fresh medium, and the concentration of cells was determined using a hemacytometer. The cell suspension was diluted to a concentration of 3000 cells/100 μL. The wells of a pre-sterilized 96-well plate were charged with 100 μL per well of the diluted cellular suspension. The plate was incubated for 24 h at 37° C. (5% CO2).
(§3) Stock solutions of each compound in DMSO were diluted with the appropriate media to 100 nM solutions (1% DMSO), which were then serially diluted with the appropriate media, and 100-uL aliquots of the resulting solutions were added to the wells containing adhered cells to achieve final concentrations of 0.39 nM to 50 nM. After incubating at 37° C. for 72 h (5% CO2), 20 μL of resazurin solution (Promega CellTiter-Blue® Cell Viability Assay) was added to each well. After incubating at 37° C. for 2.0 h (5% CO2), the fluorescence (544 nm excitation/590 nm emission) was recorded using a microplate reader (SpectraMax PLUS384) as a measure of viable cells.
(§4) Percent growth inhibition was calculated for each well, based upon the following formula: Percent growth inhibition=100×(S−B0)/(Bt−B0) where S is the sample fluorescence, Bt is the average fluorescence of an untreated population of cells at the completion of the assay, and B0 is the average fluorescence of an untreated population of cells at the beginning of the assay.
(§5) Each compound was assayed at eight separate concentrations per experiment. The percent inhibition at each concentration was plotted against log (concentration), and a curve fit was generated using the XLfit4 plugin (IDBS Software) running in Excel (Microsoft). GI50 values were computed to reflect the concentrations at which the resulting curves pass through 50% inhibition.
On the technique in general: The colour change of resazurin is a common sign of viable cells or microbes.

The next data set concerns H460 cells. As to the kind of experiment: Cell proliferation assay (resazurin, CellTiter-Blue), H460 cells. It is filed as cell-based. The settings on record: for GI50: Homo sapiens, NCI-H460, 72 h; for Effect of the C16 modification on potency (in words): comment on the data of Table 2 (H460 cells). The procedure:
as §1, §2, §3, §4, §5

Data set [1] is described as follows: 1H NMR studies of decomposition of the C16 thiol. The settings on record: on an hour time scale. The format is physicochemical.
Data set [2] in a line: Drug-linker stability assay (LC-MS). The format is physicochemical. The settings on record: after 1 week, physiologically relevant pH and temperature (37 C). The procedure:
Stability Assay: In a 1.5 mL screw-top conical plastic vial, 42 (FIG. 1A) or 39 (FIG. 1B) was dissolved in 270 μL of DMSO (5 mM). 12 μL of this DMSO drug-linker solution was mixed with 576 μL pH 5.0 sodium acetate buffer (50 mM sodium acetate, 100 mM NaCl, 4 mM EDTA). 1-naphthalene acetic acid in DMSO (12 μL, 5 mM, 1 equiv.) was added as an internal standard. The vial was then placed in a heating block at 37 C and protected from direct light. 25 μL aliquots of the reaction mixture were removed at 0 h, 4 h, 24 h, 48 h, 72 h, and 1 week and analyzed by LC-MS. LC-MS peaks were integrated using Agilent OpenLab ChemStation and the areas of each peak were normalized to 1-napthalene acetic acid at 280 nM. Percent drug-linker remaining is defined as the normalized peak area at a given time point divided by the normalized peak area at 0 hours x 100%. Each assay was also performed at pH 7.4 (phosphate-buffered solution, Corning), and assays at each pH value were performed with and without the addition of 8 mM N-acetylcysteine.

The next data set addresses T1, cathepsin B (Homo sapiens, UniProt P07858).
T1 construct: purchased Enzo Life Sciences
As to the kind of experiment: Drug-linker release assay with cathepsin B (LC-MS). It is filed as in vitro ADME. The settings on record: cathepsin B enzyme solution in buffer; cathepsin B added, pH 5.0 sodium acetate buffer, 37 C; read-out: Half-life of liberation of the C16 primary amine warhead. The procedure: Release Assay: In a 1.5 mL screw-top conical plastic vial, 42 was dissolved in 270 μL of DMSO (5 mM). 12 μL of this DMSO drug-linker solution was mixed with a DMSO solution of N-acetylcysteine (10 mM, 12 μL, 2 equiv.). To the solution was then added 510 μL pH 5.0 sodium acetate buffer (50 mM sodium acetate, 100 mM NaCl, 4 mM EDTA, 8 mM N-acetylcysteine). 1—Naphthalene acetic acid in DMSO (12 μL, 5 mM, 1 equiv.) was added as an internal standard. The vial was then placed in a heating block at 37 C for 30 minutes. After 30 minutes, 54 μL of cathepsin B solution (379 U/mL, Enzo Life Sciences) was added. The vial was returned to the heating block at 37 C and protected from direct light. 25 μL aliquots of the reaction mixture were removed at 0 min, 20 min, 40 min, 60 min, 120 min, and 180 min and analyzed by LC-MS. LC-MS peaks were integrated using Agilent OpenLab ChemStation and the areas of each peak were normalized to 1-napthalene acetic acid at 280 nM. Percent drug-linker remaining is defined as the normalized peak area at a given time point divided by the normalized peak area at 0 hours×100% (FIG. 2A). A similar procedure was used for the release assay of 39, using glucuronidase instead of cathepsin B (FIG. 2B).

The test system of data set [3] is Ramos cells (B lymphocyte cells). The data set is described as follows: Growth inhibition of Ramos cells. The format is cell-based. The conditions noted are these: Homo sapiens. The procedure: as §3, §4, §5
For data set [4] the following is noted: patients with metastatic cancer; only problematic at doses beyond those which affected tumor volume decrease; cited from earlier work.
Where [5] appears, read: MES-SA/Dx5, MES-SA/Dx-5 cells, 72 h incubation, read-out: GI50.

As for `COc1c2c(c(O)c3c4c(c(C)cc13)C1OC3(CO)OC1[C@@](OC)(O4)[C@@]31CO1)C(=O)CCC2` (some centres unmarked) [TP-1], halving of growth in the data set on MES-SA/Dx-5 cells (MES-SA/Dx5, 72 h) (GI50) required 8 nM. Turning to `COc1c2c(c(O)c3c4c(c(C)cc13)C1OC3(COCc5ccccc5)OC1[C@@](O)(O4)[C@@]31CO1)C(=O)CCC2` (some centres unmarked) [TP-4], the GI50 with MES-SA/Dx-5 cells (setting [5]) was over 100 nM.

`CCCOCC12OC3c4c(C)cc5c(OC)c6c(c(O)c5c4O[C@](OC)(C3O1)[C@@]21CO1)C(=O)CCC6` (some centres unmarked) [TP-5]: the GI50 with MES-SA/Dx-5 cells (setting [5]) turned out to be 25 nM. In the case of `C=CCOCC12OC3c4c(C)cc5c(OC)c6c(c(O)c5c4O[C@](OC)(C3O1)[C@@]21CO1)C(=O)CCC6` (some centres unmarked) [TP-6], the GI50 in the data set with MES-SA/Dx-5 cells (setting [5]) was found to be 17 nM. On to `C#CCOCC12OC3c4c(C)cc5c(OC)c6c(c(O)c5c4O[C@](OC)(C3O1)[C@@]21CO1)C(=O)CCC6` (some centres unmarked) [TP-7], for which halving of growth with MES-SA/Dx-5 cells (MES-SA/Dx5, 72 h) (GI50) required 15 nM. On the same count and under the same terms, the result for `COc1c2c(c(O)c3c4c(c(C)cc13)C1OC3(CN=[N+]=[N-])OC1[C@@](OC)(O4)[C@@]31CO1)C(=O)CCC2` (some centres unmarked) [TP-9] reads 33 nM; that for `COc1c2c(c(O)c3c4c(c(C)cc13)C1OC3(COC5CC(C)(O)C(OC(C)=O)C(C)O5)OC1[C@@](OC)(O4)[C@@]31CO1)C(=O)CCC2` (some centres unmarked) [TP-12], 50 nM. `COc1c2c(c(O)c3c4c(c(C)cc13)C1OC3(CSC(C)=O)OC1[C@@](OC)(O4)[C@@]31CO1)C(=O)CCC2` (stereo partly drawn) [compound 33, S-(((25,2'S,3a′R,13a′R)-12′-hydroxy-7′,13a′-dimethoxy-5′-methyl-11′-oxo-3a′,8′,9′,10′,11′,13a′-hexahydro-2′H,4′H-spiro [oxirane-2,1′-[2,4]epoxyfuro[3,2-b]naphtho[2,3-h]chromen]-2′-yl)methyl)ethanethioate]: in the data set with H460 cells, the 50% growth inhibitory concentration (GI50) stood at 100 nM and the “Effect of the C16 modification on potency (in words)” value (shortened to “Effect of the C16 modification”) is reported as “lack of activity”.

As for `COc1c2c(c(O)c3c4c(c(C)cc13)C1OC3(CS)OC1[C@@](OC)(O4)[C@@]31CO1)C(=O)CCC2` (stereo partly drawn) [compound 34, (25,2'S,3a′R,13a′R)-12′-hydroxy-2′-(mercaptomethyl)-7′,13a′-dimethoxy-5′-methyl-3a′, 4′,8′,9′,10′,13a′-hexahydro-2′H,11′H-spiro [oxirane-2,1′-[2,4]epoxyfuro[3,2-b]naphtho[2,3-h]chromen]-11′-one], in data set [1], the “Decomposition of the unprotected thiol” value was “rapid, non-productive, decomposition pathway”. In addition, in the data set on H460 cells, the GI50 is over 100 nM and the “Effect of the C16 modification” value is on record as “lack of activity”. As for `COc1c2c(c(O)c3c4c(c(C)cc13)[C@@H]1O[C@]3(COP(=O)(O)O)O[C@@H]1[C@@](OC)(O4)[C@@]31CO1)C(=O)CCC2` [compound 35, ((2R,2′R,3a'S,4'S,13a′R)-12′-hydroxy-7′,13a′-dimethoxy-5′-methyl-11′-oxo-3a′,8′,9′,10′,11′,13a′-hexahydro-2′H,4′H-spiro [oxirane-2,1′-[2,4]epoxyfuro[3,2-b]naphtho[2,3-h]chromen]-2′-yl)methyl dihydrogen phosphate], in the data set on H460 cells, the GI50 was determined as 35 nM and the “Effect of the C16 modification” value was “good tolerance”. In data set [2], `COc1c2c(c(O)c3c4c(c(C)cc13)[C@@H]1O[C@]3(CNC(=O)OCc5ccc(O[C@@H]6O[C@H](C(=O)O)[C@@H](O)[C@H](O)[C@H]6O)c(-n6cc(COCCOCCOCCOCCN7C(=O)C=CC7=O)nn6)c5)O[C@H]1[C@@](OC)(O4)[C@@]31CO1)C(=O)CCC2` [compound 39, (2S,3S,4S,5R,6S)-6-(2-(4-(13-(2,5-Dioxo-2,5-dihydro-1H-pyrrol-1-yl)-2,5,8,11-tetraoxatridecyl)-1H-1,2,3-triazol-1-yl)-4-((((((2R,2′R,3a′R,4'S,13a′R)-12′-hydroxy-7′,13a′-dimethoxy-5′-methyl-11′-oxo-3a′,8′,9′,10′,11′,13a′-hexahydro-2′H, 4′H-spiro [oxirane-2,1′-[2.4]epoxyfuro[3,2-b]naphtho[2,3-h]chromen]-2′-yl)methyl)carbamoyl)oxy)methyl)phenoxy)-3,4,5-trihydroxytetrahydro-2H-pyran-2-carboxylic acid] came in with a Percent drug-linker remaining of 75%. The molecule `COc1c2c(c(O)c3c4c(c(C)cc13)[C@H]1O[C@]3(CNC(=O)OCc5ccc(NC(=O)[C@H](C)NC(=O)[C@@H](NC(=O)CCOCCOCCOCCOCCN6C(=O)C=CC6=O)C(C)C)cc5)O[C@@H]1C(OC)(O4)[C@@]31CO1)C(=O)CCC2` (stereo partly drawn) [compound 42, 4-((17S,20S)-1-(2,5-dioxo-2,5-dihydro-1H-pyrrol-1-yl)-17-isopropyl-20-methyl-15,18-dioxo-3,6,9,12-tetraoxa-16,19-diazahenicosan-21-amido)benzyl (((2R,2′R,3a'S,4′R)-12′-hydroxy-7′,13a′-dimethoxy-5′-methyl-11′-oxo-3a′,8′,9′,10′, 11′, 13a′-hexahydro-2′H,4′H-spiro [oxirane-2,1′-[2,4]epoxyfuro[3,2-b]naphtho[2,3-h]chromen]-2′-yl)methyl)carbamate] had a Percent drug-linker remaining in data set [2] of 75%. At cathepsin B, the half-life at 100 µM is about 15 min. Molecule `COCC12OC3c4c(C)cc5c(OC)c6c(c(O)c5c4O[C@](OC)(C3O1)[C@@]21CO1)C(=O)CCC6` (stereo partly drawn) [compound 43, (2R,2′R,3a′R,4'S, 13a′R)-12′-hydroxy-7′, 13a′-dimethoxy-2′-(methoxymethyl)-5′-methyl-3a′ 4′,8′,9′,10′,13a′-hexahydro-2′H, 11′H-spiro[oxirane-2,1′-[2,4]epoxyfuro[3,2-b]naphtho[2,3-h]chromen]-11′-one] displayed a GI50 in data set [3] of 2.6 ± 0.8 nM. As for `COc1c2c(c(O)c3c4c(c(C)cc13)C1OC3(C)OC1[C@@](OC)(O4)[C@@]31CO1)C(=O)CCC2` (stereo partly drawn) [compound 45, (2R,2′R,3a'S,4'S)-12′-hydroxy-7′,13a′-dimethoxy-2′,5′-dimethyl-3a′ 4′,8′,9′,10′,13a′-hexahydro-2′H,11′H-spiro [oxirane-2,1′-[2,4]epoxyfuro[3,2-b]naphtho[2,3-h]chromen]-11′-one], the GI50 in data set [3] is 20 ± 5 nM. For LL-D49194a1, the Dose-limiting toxicity result in data set [4] is given as “pancarditis was the only significant dose-limiting toxicity”.
